In this experiment the test system is HFL-1 cells. The experiment is described as follows: antifibrotic drug efficacy model on lung fibrosis bionic chip, immunofluorescence staining. The experiment is classed as cell-based, human. The following applies: TGF-β-induced HFL-1 on dynamic hydrogel with laser dynamic response. The procedure:
Using the dynamic hydrogel obtained from different crosslinking times as the cell culture substrate for fibrosis models (human fetal lung fibroblasts, HFL-1), the expression of α-SMA protein is used as an indicator of myofibroblast differentiation. After culturing the HFL-1 cells for one day, 10 ng/ml of TGF-β is added to stimulate the cells as a control group for α-SMA expression. After two days of culture, a laser device is used to irradiate the cells for 24 hours at frequencies of 0.2 Hz (On-1.5 s/Off-3.5 s) and 0.3 Hz ([…]), respectively. The cells are then fixed and stained for observation. In FIG. 11, “10 min” and “25 min” indicate the fluorescence images of the dynamic hydrogel 5 obtained by UV irradiation for 10 minutes and 25 minutes, respectively.
Furthermore, since ECM remodeling in lung fibrosis patients leads to tissue stiffness, and stiff substrates apply mechanical stress to cells, the activity of YAP occurs through nuclear translocation, with YAP cellular localization depending on mechanical stress. Therefore, HFL-1 cells are cultured in dynamic hydrogels of different hardness (simulating substrates of varying stiffness) and dynamic response environments with laser frequencies to evaluate the effects of substrate hardness and dynamic response on the localization of YAP in lung fibroblasts. […]

Molecules are shown by their SMILES.

With `Cc1ccc(=O)n(-c2ccccc2)c1` [pirfenidone], where the note is “pirfenidone 5.3 mM, two days drug, FIG. 13(a)”, the “expression of the fibrotic marker α-SMA” value is listed as “inhibited”. Moreover, the “inhibiting the mechanical response marker YAP” value (pirfenidone, FIG. 13(b)) was “less significant effect”.

These data come from patent publication US20250333682A1, “DYNAMIC HYDROGEL AND PULMONARY FIBROSIS BIONIC CHIP” (Anivance AI Corporation, priority 2024, published 2025).
